Experimental data published in patent US20240138838A1, “SURFACE-MODIFIED ANASTOMOSIS DEVICE” (Washington University, priority 2022, published 2024).

Test system: HUVECs
Assay: 2D angiogenesis assay, HUVECs on the hydrogel surface
Type: cell-based, human
Procedure: Angiogenesis and vascularization assays were adopted to optimize hydrogels with RGD. For the two-dimensional (2D) culture of HUVECs, cells (4×10^4/well in a 96-well plate) were plated on the surface of HA hydrogels (40 μL; HA-SH: 4 mg/mL and PEGDA: 5 mg/mL) with various concentrations of RGD (0, 0.01, 0.1, and 1 mM). Matrigel was used as a positive control. After 24 h, HUVECs were imaged after LIVE/DEAD staining. As for the 3D cell culture, to avoid cell precipitation onto the surface of the plate, the plate was first coated with the hydrogels (40 μL hydrogel; HA-SH: 4 mg/mL, PEGDA: 2 mg/mL, F127-SS-DA: 4 mg/mL; RGD: 0, 0.10, 0.25, and 0.50 mM). Then, HUVECs and hASCs mixed with hydrogel precursor solutions (0.75×10^6/mL hydrogel; 40 μL hydrogel) were plated on top of hydrogels. In addition, both cells were cultured inside hydrogels with F127-SS-DA or F127-DA (40 μL; HA-SH: 4 mg/mL, PEGDA: 2 mg/mL, RGD: 0.1 mM; F127-DA or F127-SS-DA: 2, 4, 8, 10, 20, and 50 mg/mL). The cells were imaged after immunostaining for F-actin. […]
Cell viability was examined with a LIVE/DEAD staining kit and then the images were captured by a Zeiss LSM 880 laser scanning confocal microscope. The cell morphology was also evaluated by immunostaining with Alexa Fluor Phalloidin 568 or 488 for F-actin and 4′,6-diamidino-2-phenylindole dihydrochloride (DAPI, Molecular Probes) for cell nuclei.

RGD was tested, and the “endothelial cell layer on the hydrogel surface” value (RGD at 1 mM) was “supported the formation of a full layer of endothelial cells” and the endothelial cell adhesion (RGD conjugated to a hyaluronic acid-based hydrogel, FIG. 18) was “improved endothelial cell adhesion in a dose-dependent manner”.
